# According to patent US8853207B2 (Development Center for Biotechnology, priority 2012, dated 2014):
# pIC50: −log10 of the molar value. Structures can show the parent of a compound that is named as a salt.
# Columns and labels:
# Format in all cases: biochemical
# [1] = target: C-kit kinase (recombinant N-terminal 6×His-tagged C-kit kinase domain) (Homo sapiens (Human), UniProt P10721); assay: C-kit kinase assay ([33P] incorporation into substrate); settings: 100 μM ATP, 30° C., 30 minutes
# Procedure: Inhibition of C-kit kinase activity by compounds disclosed herein was quantified by measuring the amount of [^33P] incorporated into the substrate in the presence of a test compound. Briefly, a reaction mixture of 25 μL final volume containing 5 ng of C-kit kinase (obtained by purifying recombinant N-terminal 6×His-tagged C-kit kinase domain construct expressed from baculovirus), 5 μg of the substrate [Poly (Glu-Tyr, […], Sigma], kinase reaction buffer (8 mM MOPS/NaOH pH7.0, 0.2 mM EDTA, 10 mM MnCl2, 0.5% glycerol, 0.001% Brij-35, 0.01%, 2-mercaptoethanol, 0.1 mg/ml BSA, 100 μM ATP, 0.1 μCi per well [^33P]-γ-ATP (2,500-3,000 Ci/mmol)), and a test compound (diluted from 9 μM to the desired final concentration by 4% DMSO) or DMSO (as the control) was incubated at 30° C. for 30 minutes. The reaction was stopped by adding 5 μL of 3% phosphoric acid solution. The resultant solution (30 μL) was later harvested by a UniFilter Plate GF/B (PerkinElmer) followed by adding 30 μL of the scintillation cocktail (MicroScint 20, PerkinElmer) to the well. The radioactivity retained on the filter membrane was measured by a luminescence counter (PerkinElmer). The results were analyzed by using linear regression software (GraphPad Prism 4; GraphPad Software Inc.).
# [2] = target: PDGFR-β kinase (recombinant N-terminal 6×His-tagged PDGFR-β kinase domain) (Homo sapiens (Human), UniProt P09619); assay: PDGFR-β kinase assay ([33P] incorporation into substrate); settings: 30 nM ATP, 30° C., 30 minutes; read-out: IC50 (nM) PDGFRβ
# Procedure: (§1) Inhibition of PDGFR-β kinase activity by compounds disclosed herein was quantified by measuring the amount of [^33P] incorporated into the substrate in the presence of a test compound. Briefly, a reaction mixture of 25 μL final volume containing 55 ng of PDGFR-β kinase (obtained by purifying recombinant N-terminal 6×His-tagged PDGFR-β kinase domain construct expressed by baculovirus), 2.5 μg of the substrate [Poly (Glu-Tyr, 4:1), Sigma], kinase reaction buffer (20 mM MOPS pH 7.0, 1 mM EDTA, 5% glycerol, 0.01% Brij-35, 0.1% β-mercaptoethanol, 1 mg/mL BSA, 2 mM MnCl2, 30 nM ATP, 0.1 μCi per well [^33P]-γ-ATP (2,500-3,000 Ci/mmol)), and a test compound (diluted from 9 μM to the desired final concentration by 4% DMSO) or DMSO (as the control) was incubated at 30° C. for 30 minutes. The reaction was stopped by adding 5 μL of 3% phosphoric acid solution. The resultant solution (30 μL) was later harvested by a UniFilter Plate GF/B (PerkinElmer) followed by adding 30 μL of the scintillation cocktail (MicroScint 20, PerkinElmer) to the well. The radioactivity retained on the filter membrane was measured by a luminescence counter (PerkinElmer). The results were analyzed by using linear regression software (GraphPad Prism 4; GraphPad Software Inc.).
# [3] = target: FLT3 kinase (FLT3 kinase domain alone, Upstate) (Homo sapiens (Human), UniProt P36888); assay: FLT3 kinase assay ([33P] incorporation into substrate); settings: 100 μM ATP, 30° C., 30 minutes; read-out: IC50 against FLT3
# Procedure: as §1, with “FLT3” for “PDGFR-β”, “5” for “55”, “(FLT3” for “(obtained by purifying recombinant N-terminal 6×His-tagged PDGFR-β”, “alone, Upstate), 5” for “construct expressed by baculovirus), 2.5”, “[(Poly” for “[Poly”, “100 μM” for “2 mM MnCl2, 30 nM”
# Chain of PDGFR-β kinase (recombinant N-terminal 6×His-tagged PDGFR-β kinase domain) (P09619 600-962): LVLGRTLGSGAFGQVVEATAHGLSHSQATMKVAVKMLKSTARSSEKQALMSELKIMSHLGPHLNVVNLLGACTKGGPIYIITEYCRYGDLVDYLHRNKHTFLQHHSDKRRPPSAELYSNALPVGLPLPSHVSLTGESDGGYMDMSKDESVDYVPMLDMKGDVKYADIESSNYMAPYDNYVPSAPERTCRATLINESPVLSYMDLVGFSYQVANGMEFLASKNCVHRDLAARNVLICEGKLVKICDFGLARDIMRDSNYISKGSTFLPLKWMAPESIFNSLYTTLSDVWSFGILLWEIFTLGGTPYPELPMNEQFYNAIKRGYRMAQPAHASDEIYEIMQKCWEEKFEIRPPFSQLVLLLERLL
# Chain of C-kit kinase (recombinant N-terminal 6×His-tagged C-kit kinase domain) (P10721 589-937): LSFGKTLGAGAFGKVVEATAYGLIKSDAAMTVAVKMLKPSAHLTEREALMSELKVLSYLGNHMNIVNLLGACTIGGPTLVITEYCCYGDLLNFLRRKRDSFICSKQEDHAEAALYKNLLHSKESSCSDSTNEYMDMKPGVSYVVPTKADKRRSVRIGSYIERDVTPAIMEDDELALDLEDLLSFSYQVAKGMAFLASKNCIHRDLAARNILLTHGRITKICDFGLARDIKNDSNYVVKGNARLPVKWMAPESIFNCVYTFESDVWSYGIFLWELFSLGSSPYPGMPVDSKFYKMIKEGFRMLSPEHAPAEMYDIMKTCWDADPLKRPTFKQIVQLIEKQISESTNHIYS
# Chain of FLT3 kinase (FLT3 kinase domain alone, Upstate) (P36888 610-943): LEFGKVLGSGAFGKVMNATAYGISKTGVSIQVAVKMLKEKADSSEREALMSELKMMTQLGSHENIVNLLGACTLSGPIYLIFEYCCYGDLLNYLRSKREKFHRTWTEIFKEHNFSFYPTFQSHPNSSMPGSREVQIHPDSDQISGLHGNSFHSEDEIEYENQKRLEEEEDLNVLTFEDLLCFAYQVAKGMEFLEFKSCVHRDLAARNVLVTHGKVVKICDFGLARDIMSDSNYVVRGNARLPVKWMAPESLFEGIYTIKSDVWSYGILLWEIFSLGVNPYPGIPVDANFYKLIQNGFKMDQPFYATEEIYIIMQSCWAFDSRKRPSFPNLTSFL
SMILES,IC50 [1] [nM],IC50 [2] [nM],pIC50 [3]
"Nc1ccc(-c2n[nH]c3c2Cc2sccc2-3)cc1 [Example-2, 4-(4,7-Dihydro-1-thia-4,5-diaza-cyclopenta[a]pentalen-6-yl)-phenylamine hydrochloride]",201,859,> 7.00
"Oc1cccc(Nc2ccc(-c3n[nH]c4c3Cc3sccc3-4)cc2)c1 [Example-10, 3-[4-(4,7-Dihydro-1-thia-4,5-diaza-cyclopenta[a]pentalen-6-yl)-phenylamino]-phenol]",139,118,> 7.00
"COc1ccc(-c2n[nH]c3c2Cc2sc(-c4ccc(NC(=O)CN5CCCC5)nc4)cc2-3)cc1 [Example-82, N-{5-[6-(4-Methoxy-phenyl)-4,7-dihydro-1-thia-4,5-diaza-cyclopenta[a]pentalen-2-yl]-pyridin-2-yl}-2-pyrrolidin-1-yl-acetamide]",12.2,176,> 7.00
"Oc1ccc(-c2n[nH]c3c2Cc2sccc2-3)cc1 [Example-93, 4-(4,7-Dihydro-1-thia-4,5-diaza-cyclopenta[a]pentalen-6-yl)-phenol]",,,> 7.00

# Further lines, results first:
IC50 [1] [nM],IC50 [2] [nM],pIC50 [3],SMILES
22,316,> 7.00,"COc1ccc(-c2n[nH]c3c2Cc2sc(-c4ccncc4)cc2-3)cc1 [Example-69, 6-(4-Methoxy-phenyl)-2-pyridin-4-yl-4,7-dihydro-1-thia-4,5-diaza-cyclopenta[a]pentalene]"
24.8,479,> 7.00,"COc1ccc(-c2n[nH]c3c2Cc2sc(-c4cccnc4)cc2-3)cc1 [Example-70, 6-(4-Methoxy-phenyl)-2-pyridin-3-yl-4,7-dihydro-1-thia-4,5-diaza-cyclopenta[a]pentalene]"
27.5,363,> 7.00,"COc1ccc(-c2n[nH]c3c2Cc2sc(-c4ccc(N)nc4)cc2-3)cc1 [Example-78, 5-[6-(4-Methoxy-phenyl)-4,7-dihydro-1-thia-4,5-diaza-cyclopenta[a]pentalen-2-yl]-pyridin-2-ylamine]"
,,> 7.00,"CN1CCN(c2ccc(-c3n[nH]c4c3Cc3sc(-c5ccc(N)nc5)cc3-4)cc2)CC1 [Example-89, 5-{6-[4-(4-Methyl-piperazin-1-yl)-phenyl]-4,7-dihydro-1-thia-4,5-diaza-cyclopenta[a]pentalen-2-yl}-pyridin-2-ylamine hydrochloride]"
,,> 7.00,"COc1ccc(-c2n[nH]c3c2Cc2sc(-c4cncc(N)c4)cc2-3)cc1 [Example-91, 5-[6-(4-Methoxy-phenyl)-4,7-dihydro-1-thia-4,5-diaza-cyclopenta[a]pentalen-2-yl]-pyridin-3-ylamine hydrochloride]"
,,> 7.00,"Nc1ccc(-c2cc3c(s2)Cc2c(-c4ccc(O)cc4)n[nH]c2-3)cn1 [Example-92, 4-[2-(6-Amino-pyridin-3-yl)-4,7-dihydro-1-thia-4,5-diaza-cyclopenta[a]pentalen-6-yl]-phenol]"
